Test results as given in article PMC8550792, “Evolution of kinase polypharmacology across HSP90 drug discovery” (Cell Chemical Biology, 2021).

Legend:
Experiment in all cases: biochemical
Type in all cases: biochemical
382 unique human kinases [1] = target: T1, 382 unique human kinases (Homo sapiens, UniProt Q12852); conditions: kinase DLK/MAP3K12, compound 10 uM; for remaining activity at 10 µM: read-out: % Enzyme Activity (relative to DMSO controls)
T1 sequence (Q12852 1-859): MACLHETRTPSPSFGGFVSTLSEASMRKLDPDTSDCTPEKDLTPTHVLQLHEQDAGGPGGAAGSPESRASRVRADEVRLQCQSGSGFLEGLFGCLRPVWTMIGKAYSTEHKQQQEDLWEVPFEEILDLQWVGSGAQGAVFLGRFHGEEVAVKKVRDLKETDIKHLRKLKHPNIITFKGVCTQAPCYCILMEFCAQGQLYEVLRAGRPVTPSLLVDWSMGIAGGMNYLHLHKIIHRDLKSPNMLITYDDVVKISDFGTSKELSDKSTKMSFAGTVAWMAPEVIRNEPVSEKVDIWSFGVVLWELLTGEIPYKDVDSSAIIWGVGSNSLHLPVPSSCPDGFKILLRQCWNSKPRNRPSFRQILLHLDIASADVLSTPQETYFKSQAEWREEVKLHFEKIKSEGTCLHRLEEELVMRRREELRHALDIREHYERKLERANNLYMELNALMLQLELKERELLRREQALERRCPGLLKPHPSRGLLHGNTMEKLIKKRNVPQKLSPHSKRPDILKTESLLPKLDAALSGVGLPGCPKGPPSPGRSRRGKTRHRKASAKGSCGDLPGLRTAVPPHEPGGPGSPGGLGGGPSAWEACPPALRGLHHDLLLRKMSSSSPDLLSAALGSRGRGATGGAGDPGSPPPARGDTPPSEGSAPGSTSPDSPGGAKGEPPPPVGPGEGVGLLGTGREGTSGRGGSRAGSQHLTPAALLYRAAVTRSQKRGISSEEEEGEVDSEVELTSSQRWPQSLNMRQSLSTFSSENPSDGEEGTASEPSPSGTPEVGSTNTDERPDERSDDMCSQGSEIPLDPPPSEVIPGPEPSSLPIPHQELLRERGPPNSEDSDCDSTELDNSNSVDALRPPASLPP

382 unique human kinases [2] = target: T2, 382 unique human kinases (Homo sapiens, UniProt Q13470); conditions: TNK1, 10 uM; for remaining activity at 10 µM: read-out: % Enzyme Activity (relative to DMSO controls)
T2 construct: purchased Reaction Biology (HotSpot contract assay)
T2 sequence (Q13470 1-666): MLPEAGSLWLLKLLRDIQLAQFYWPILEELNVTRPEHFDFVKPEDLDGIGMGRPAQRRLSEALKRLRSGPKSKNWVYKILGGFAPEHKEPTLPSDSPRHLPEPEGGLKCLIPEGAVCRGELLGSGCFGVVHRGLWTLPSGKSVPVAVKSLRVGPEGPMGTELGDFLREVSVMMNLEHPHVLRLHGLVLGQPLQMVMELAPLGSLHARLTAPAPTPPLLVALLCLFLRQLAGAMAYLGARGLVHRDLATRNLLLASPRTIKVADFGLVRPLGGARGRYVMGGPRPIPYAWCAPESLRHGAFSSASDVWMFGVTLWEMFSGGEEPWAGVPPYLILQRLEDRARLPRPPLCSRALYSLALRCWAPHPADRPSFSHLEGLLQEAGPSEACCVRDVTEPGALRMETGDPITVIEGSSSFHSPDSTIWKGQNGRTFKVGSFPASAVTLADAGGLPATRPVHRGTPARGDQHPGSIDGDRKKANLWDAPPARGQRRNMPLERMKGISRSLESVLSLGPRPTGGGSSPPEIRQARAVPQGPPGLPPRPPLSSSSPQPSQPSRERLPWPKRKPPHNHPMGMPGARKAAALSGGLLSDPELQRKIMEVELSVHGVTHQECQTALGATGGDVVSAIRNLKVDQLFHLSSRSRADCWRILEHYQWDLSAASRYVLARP

382 unique human kinases [3] = target: T3, 382 unique human kinases (Homo sapiens, UniProt Q13873); conditions: BMPR2, 10 uM; for remaining activity at 10 µM: read-out: % Enzyme Activity (relative to DMSO controls)
T3 construct: purchased Reaction Biology (HotSpot contract assay)
T3 sequence (Q13873 27-1038): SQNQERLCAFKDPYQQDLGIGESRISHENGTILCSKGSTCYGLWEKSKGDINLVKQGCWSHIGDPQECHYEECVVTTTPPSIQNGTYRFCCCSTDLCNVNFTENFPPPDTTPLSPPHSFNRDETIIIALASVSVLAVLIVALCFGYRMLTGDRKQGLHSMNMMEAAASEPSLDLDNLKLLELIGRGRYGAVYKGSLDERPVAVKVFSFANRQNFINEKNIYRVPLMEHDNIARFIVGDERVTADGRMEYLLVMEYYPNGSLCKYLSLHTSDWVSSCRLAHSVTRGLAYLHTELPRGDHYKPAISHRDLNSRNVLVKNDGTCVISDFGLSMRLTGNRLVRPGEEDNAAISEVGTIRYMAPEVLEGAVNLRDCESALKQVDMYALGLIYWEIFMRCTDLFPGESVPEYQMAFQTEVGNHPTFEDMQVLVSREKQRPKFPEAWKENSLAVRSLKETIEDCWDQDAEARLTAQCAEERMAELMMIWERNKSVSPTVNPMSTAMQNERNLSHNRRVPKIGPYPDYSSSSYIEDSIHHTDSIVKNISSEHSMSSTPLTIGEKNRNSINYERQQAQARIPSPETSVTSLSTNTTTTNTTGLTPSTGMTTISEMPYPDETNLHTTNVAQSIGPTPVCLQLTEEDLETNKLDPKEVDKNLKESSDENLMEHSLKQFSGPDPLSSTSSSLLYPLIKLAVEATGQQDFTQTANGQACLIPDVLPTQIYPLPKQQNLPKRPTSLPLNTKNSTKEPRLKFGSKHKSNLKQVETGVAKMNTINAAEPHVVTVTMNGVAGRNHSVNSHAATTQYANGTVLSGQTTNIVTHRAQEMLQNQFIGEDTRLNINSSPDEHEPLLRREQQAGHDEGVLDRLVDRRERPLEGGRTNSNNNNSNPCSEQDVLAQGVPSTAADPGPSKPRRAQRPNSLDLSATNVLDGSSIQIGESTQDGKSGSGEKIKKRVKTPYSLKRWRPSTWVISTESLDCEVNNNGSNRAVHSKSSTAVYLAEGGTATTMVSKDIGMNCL

382 unique human kinases [4] = target: T4, 382 unique human kinases (Homo sapiens, UniProt Q9Y2H1); conditions: STK38L/NDR2, compound at 10 uM, duplicate values; for remaining activity at 10 µM: read-out: % Enzyme Activity (relative to DMSO controls)
T4 construct: purchased Reaction Biology (HotSpot contract assay)
T4 sequence (Q9Y2H1 whole entry): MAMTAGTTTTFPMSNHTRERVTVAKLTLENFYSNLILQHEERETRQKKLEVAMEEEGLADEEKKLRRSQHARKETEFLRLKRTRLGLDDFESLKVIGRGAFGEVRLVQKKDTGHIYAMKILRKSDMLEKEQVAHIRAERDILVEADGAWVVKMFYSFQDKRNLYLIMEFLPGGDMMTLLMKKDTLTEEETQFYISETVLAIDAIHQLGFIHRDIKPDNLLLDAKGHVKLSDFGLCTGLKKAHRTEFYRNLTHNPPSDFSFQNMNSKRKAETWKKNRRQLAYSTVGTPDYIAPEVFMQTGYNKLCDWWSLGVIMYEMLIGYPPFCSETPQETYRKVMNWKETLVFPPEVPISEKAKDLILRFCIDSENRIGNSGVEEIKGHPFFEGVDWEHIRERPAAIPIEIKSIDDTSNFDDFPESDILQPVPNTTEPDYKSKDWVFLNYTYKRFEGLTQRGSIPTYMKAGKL

382 unique human kinases [5] = target: T5, 382 unique human kinases (Homo sapiens, UniProt Q15208); conditions: STK38/NDR1, 10 uM; for remaining activity at 10 µM: read-out: % Enzyme Activity (relative to DMSO controls)
T5 construct: purchased Reaction Biology (HotSpot contract assay)
T5 sequence (Q15208 whole entry): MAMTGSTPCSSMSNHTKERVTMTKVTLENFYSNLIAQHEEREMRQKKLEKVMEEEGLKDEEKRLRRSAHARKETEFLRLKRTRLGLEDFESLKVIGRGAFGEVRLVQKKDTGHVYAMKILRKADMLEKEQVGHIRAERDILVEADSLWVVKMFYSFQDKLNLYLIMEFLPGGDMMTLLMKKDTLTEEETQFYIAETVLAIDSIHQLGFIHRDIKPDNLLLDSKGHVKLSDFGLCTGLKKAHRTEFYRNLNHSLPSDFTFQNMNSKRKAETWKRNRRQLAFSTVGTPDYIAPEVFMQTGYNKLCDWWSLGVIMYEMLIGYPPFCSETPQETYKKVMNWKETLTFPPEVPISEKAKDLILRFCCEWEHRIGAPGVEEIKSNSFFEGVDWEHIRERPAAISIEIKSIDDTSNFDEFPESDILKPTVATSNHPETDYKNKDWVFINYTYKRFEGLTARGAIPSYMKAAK

SMILES | remaining activity at 10 µM (382 unique human kinases [1]) [%] | remaining activity at 10 µM (382 unique human kinases [2]) [%] | remaining activity at 10 µM (382 unique human kinases [3]) [%] | remaining activity at 10 µM (382 unique human kinases [4]) [%] | remaining activity at 10 µM (382 unique human kinases [5]) [%] | % Enzyme Activity (relative to DMSO controls) (382 unique human kinases [5]) [%] | % Enzyme Activity (relative to DMSO controls) (382 unique human kinases [1]) [%] | % Enzyme Activity (relative to DMSO controls) (382 unique human kinases [2]) [%] | % Enzyme Activity (relative to DMSO controls) (382 unique human kinases [3]) [%] | % Enzyme Activity (relative to DMSO controls) (382 unique human kinases [4]) [%]
CC(C)c1cc(-c2n[nH]c(=O)n2-c2ccc3c(ccn3C)c2)c(O)cc1O [Ganetespib (STA9090)] | 84.7 | 65.8 | 65.3 | 105 | – | – | – | – | – | –
CC(C)c1cc(-c2n[nH]c(=O)n2-c2ccc3c(ccn3C)c2)c(O)cc1O [Ganetespib] | – | – | – | – | 95.7 | – | – | – | – | –
CCNC(=O)c1noc(-c2cc(C(C)C)c(O)cc2O)c1-c1ccc(CN2CCOCC2)cc1 [Luminespib] | – | – | – | – | 99 | 98.10 | – | – | – | –
CCNC(=O)c1noc(-c2cc(C(C)C)c(O)cc2O)c1-c1ccc(CN2CCOCC2)cc1 [Luminespib (AUY-922)] | 122 | 97.5 | 108 | 108 | – | – | 120.31 | 96.12 | 104.76 | 105.09
